Laboratory results from US20240400997A1, “TRANSFORMED HUMAN HEPATIC STELLATE CELL LINE AND USE THEREOF” (KOREA RESEARCH INSTITUTE OF BIOSCIENCE AND BIOTECHNOLOGY, priority 2020, published 2024).
Like-named read-outs stand apart in the source and are kept apart here.

Experiments:
CYP3A4 enzyme [1] = test: Liver injury simulation in 3D co-cultures with HepaRG: CYP3A4 enzyme activity and albumin production; conditions: hydrogels and NP-hydrogels, K-HSC or LX-2 with HepaRG 1:1
[2] = system: primary human hepatic cells; test: K-HSC and primary human hepatic cells 1:1 in hydrogel or nanoparticle-hydrogel, TGF-β1 cycles, albumin; format: cell-based; conditions: 10 ng/mL TGF-β1, 3 cycles, 24-day culture, K-HSC with primary human hepatic cells
Experimental: The K-HSC prepared in Example 1 was encapsulated with primary human hepatic cells (PHHs, Corning, USA) at a ratio of 1:1 in 4.5% polyethylene glycol/hyaluronic acid/RGD hydrogel using photopolymerization as described in Example 4. The cells frozen with nitrogen were thawed using recovery media (ThermoFisher, USA) and centrifuged, and then the number of cells were measured, and the cells were encapsulated with the K-HSC in a hydrogel, and then cultured for one day in a primary human hepatocyte plating medium (ThermoFisher, USA) containing 10% bovine serum. The medium was converted to a dedicated serum-free medium for primary human hepatic cells (Corning, USA), after 5 days, TGF-β1 inducing fibrosis, was added for 24 hours at a concentration of 10 ng/mL, and then converted back to a serum-free medium to which the TGF-β1 was not added in the following day, 3 cycles were performed, and the appearance change of the hydrogel was observed after the 24-day culture, and albumin production ability and expression levels of fibrosis markers were measured by RT-PCR.

TGF-β1 = test: K-HSC/HepaRG 1:1 in 4% hydrogel with TGF-β1 and inhibitor A, 18-day culture, liver fibrosis marker expression; format: cell-based, human; conditions: K-HSC/HepaRG 1:1, 4% hydrogel, 18 days
Experimental: Meanwhile, the K-HSC was encapsulated with the hepatic cell line HepaRG at a ratio of 1:1 in a 4% hydrogel and then 3D cultured, and the groups were divided into experimental groups to which TGF-β1, which is a fibrosis-inducing material, and inhibitor A thereof were added individually or simultaneously, and a control group to which TGF-β1 and inhibitor A were not added. The groups were cultured for 18 days, and then the cell network formation and expression differences of fibrosis markers in the liver analogs were confirmed.

CYP3A4 enzyme [3] = system: CYP3A4 enzyme

Compound | CYP3A4 enzyme activity and function (CYP3A4 enzyme [1]) | albumin degrading ability in the presence of TGF-β1 compared to control groups [2] | reactivity to TGF-β1 in expression of liver fibrosis markers (TGF-β1) | CYP3A4 enzyme activity and function (CYP3A4 enzyme [3])
CN(Cc1cnc2nc(N)nc(N)c2n1)c1ccc(C(=O)N[C@@H](CCC(=O)O)C(=O)O)cc1 [MTX, methotrexate] | CYP3A4 enzyme activity and functional decrease were simulated |  |  | 
transforming growth factor beta 1 [TGF-β1] |  | deterioration | confirmed in all markers except smooth muscle actin alpha (α-SMA) and lysyl oxidase (LOX) | CYP3A4 enzyme activity and functional decrease were simulated
